According to US10377800B2, “Myelin oligodendrocyte glycoprotein (MOG) peptide” (APITOPE TECHNOLOGY (BRISTOL) LIMITED, priority 2013, dated 2019):

Tests used:
[1] = test system: MOG-specific hybridoma T cell clones; test: Antigen processing independent presentation: peptides presented by live or p-formaldehyde fixed Mgar cells to T cell hybridoma clones, IL-2 production; assay type: cell-based, mice; details: FIG. 1; for identification as apitope: detailed study, overlapping peptides in region 25-60 displaced by one amino acid
Description: A panel of 15-mer overlapping peptides spanning rhMOGED was synthesized using standard F-moc chemistry. […]
MOG-specific hybridoma T cell clones were generated by immunisation of DR2+ mice. DR2+ mice were immunised with either a pool of MOG overlapping peptides or rhMOGED in complete Freunds adjuvant (CFA). After 10 days, the spleen and draining lymph nodes were removed, CD4+ T cells were purified and restimulated with antigen/CFA in vitro. A week later, T cells were restimulated in vitro with antigen to increase the number of activated antigen-specific cells.
After 3 days, activated T cells were fused with the thymoma cell line BW 5147. Hybridoma clones were then selected using HAT selection medium and screened for peptide specificity by IL-2 ELISA.
Live or p-formaldehyde fixed Mgar (HLA-DR2+ve) cells were incubated with peptides in serum or in serum alone, together with T cells for 48 hours. The T cell proliferative response was measured by IL-2 production.

[2] = molecular target: T1, I-A^S (Mus musculus, UniProt P06345+P14437); details: cited from earlier work
T1 sequence (P14437 1-233): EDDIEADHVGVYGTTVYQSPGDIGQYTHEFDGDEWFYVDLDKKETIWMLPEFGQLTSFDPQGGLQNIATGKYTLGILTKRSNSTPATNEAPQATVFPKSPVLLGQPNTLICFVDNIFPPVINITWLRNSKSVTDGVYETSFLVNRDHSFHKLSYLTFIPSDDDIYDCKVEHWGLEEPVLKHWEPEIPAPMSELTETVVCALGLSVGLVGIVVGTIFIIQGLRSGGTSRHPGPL
T1 sequence (P06345 28-263): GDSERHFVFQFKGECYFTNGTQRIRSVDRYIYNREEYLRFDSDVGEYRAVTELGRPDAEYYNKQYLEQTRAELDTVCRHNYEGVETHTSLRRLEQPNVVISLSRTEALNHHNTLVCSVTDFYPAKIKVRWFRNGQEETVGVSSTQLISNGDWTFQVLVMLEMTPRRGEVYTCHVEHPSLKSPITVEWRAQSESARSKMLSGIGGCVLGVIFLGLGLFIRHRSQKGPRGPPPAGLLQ

[3] = administered in solution; Anderton and Wraith (1998); cited from earlier work
[4] = test system: DR2 transgenic mice; test: MOG-induced EAE model; assay type: in vivo; details: for Incidence (EAE) / Mean day of onset (EAE): Pertussis toxin day 0 and 2
Method: (§1) To test the capacity of ROK5 to prevent MOG-induced EAE in HLA-DR2 transgenic mice, the disease model was established in this strain of mice. To induce the disease, the encephalitogenic MOG peptide, mouse MOG 35-55 (mMOG35-55) was used. Then, ROK5 was tested in EAE prevention experiments as follows:
Two groups of DR2 transgenic mice were setup, at day zero, animals (n=7) in group “100 μg” received 100 μg mMOG35-55 in Complete Freund's Adjuvant (CFA) (100 μl, s.c., base of the tail injection), animals (n=8) in group “200 μg” received 200 μg mMOG35-55 in CFA. At day zero and day2, all animals received an injection of Pertussis toxin (200 ng in PBS, i.p.). Every day, clinical EAE was scored and animal body weight measured.

[5] = test system: splenocytes; test: Cytokine profiles of splenocyte supernatants after in vivo ROK5 pre-treatment, MOG35-55 immunisation and in vitro recall; set-up: species or system mice; details: ROK5 pretreatment vs PBS; FIG. 3
Method: (§2) HLA-DR2 transgenic mice were immunised with either 100 μg ROK5 (MOG 41-55), 100 μg MOG 35-55 or PBS on days −8, −4 and −2. On day 0, mice were challenged with 100 μg MOG 35-55 by injection in the tail base in combination with CFA.
The effect of ROK5 pre-treatment on various cytokine profiles was also investigated.

[6] = test system: HLA-DR2 transgenic mice; test: ROK5 EAE prevention, second experiment (5 pre-treatments); assay type: in vivo; details: pretreated 5 times, 3 days apart, 100 μg s.c. flank; EAE by 200 μg mMOG35-55; FIG. 7
Method: as §1
Experiment 2: with 5 ROK5 dose pre-treatments, followed by immunisation with mMOG35-55.
(§3) In each experiment, 10 mice were used per group.
(§4) A second experiment was performed where animals were pretreated 5 times (3 days apart) with either human ROK5 or PBS, 100 μg in 100 μl in CFA (s.c. injection in the flank), then all animals were immunised with 200 μg mMOG35-55 in CFA (s.c. injection at the base of the tail) and with 200 ng Pertussis toxin (200 ng in PBS, i.p.) at day zero and day 2. Every day, clinical EAE was scored.

[7] = test system: HLA-DR2 transgenic mice; test: ROK5 EAE prevention, first experiment (3 pre-treatments); assay type: in vivo; details: pretreated 3 times, FIG. 6; for severity of the disease induced by MOG (clinical EAE score): 3 days apart, 100 μg s.c. flank, EAE by 200 μg mMOG35-55
Method: as §1
Experiment 1: with 3 ROK5 dose pre-treatments, followed by immunisation with mMOG35-55.
as §3
as §4, with “A first” for “A second”, “pretreated 3” for “pretreated 5”, “either mouse ROK5,” for “either”, “2.” for “2. Every day, clinical EAE was scored.”
Every day, clinical EAE was scored and animal body weight measured.

[8] = test system: HLA-DR2 transgenic mice; test: Ex vivo tolerance assay: recall proliferation with MOG 35-55 after peptide pre-treatment and MOG 35-55/CFA challenge; details: 100 μg on days -8, -4 and -2; challenge 100 μg MOG 35-55 in CFA day 0; harvest day 10; FIG. 2
Method: as §2
On day 10, splenocytes and draining lymph nodes were harvested and their respective cell populations isolated and a recall proliferation assay was set up with MOG 35-55. Cells from individual mice were treated separately and data is plotted separately in FIG. 2. For the recall response cells were treated ex vivo with a dose range of MOG35-55 (100, 10, 1, 0.1, 0.01, 0 μg) and proliferation via ^3H-thymidine incorporation determined. Stimulation index (compared to proliferation with no antigen) was calculated for each condition.

[9] = 100 μg mMOG35-55 in CFA s.c. base of tail, n=7
[10] = 200 μg mMOG35-55 in CFA s.c. base of tail, n=8

Substance: FSRVVHLYRNGKDQD (listed as Homo sapiens) [MOG 44-58, MOG peptide 44-58, apitope]
- identification as apitope [1]: identified as apitopes

Substance: MBP [89-101]: myelin basic protein peptide 89-101, immunodominant antigen, not tolerogenic (PHLIRLFSRDAPG; UniProt P04370 89-101, looked up, fragment)
- affinity of binding to I-A^S [2]: relatively high affinity
- induction of tolerance [3]: ineffective at inducing tolerance

Substance: MEVGWYRSPFSRVVHLYRNGK (listed as Mus musculus) [mMOG35-55, encephalitogenic MOG peptide used to induce EAE]
- Incidence (EAE) [4, 9]: 4/7
- Mean day of onset (EAE) [4, 9]: 12.25 days
- Incidence (EAE) [4, 10]: 7/8
- Mean day of onset (EAE) [4, 10]: 12 days
- induction of EAE ([4]; both doses (100 μg and 200 μg), FIGS. 5A, 5B): can induce EAE with a good incidence

Substance: PFSRVVHLYRNGKDQ (listed as Homo sapiens) [MOG 43-57, MOG peptide 43-57, apitope]
- identification as apitope [1]: identified as apitopes

Substance: RPPFSRVVHLYRNGK (listed as Homo sapiens) [ROK5, human MOG peptide 41-55, apitope]
- production of GM-CSF by splenocytes [5]: clearly affected
- production of IFNγ by splenocytes [5]: clearly affected
- production of IL6 by splenocytes [5]: clearly affected
- production of IL-2 by splenocytes [5]: clearly affected
- peak of disease burden (timing) [6]: caused a delay in the peak of disease burden
- severity of disease (clinical EAE score) [6]: reduced the severity of disease
- presentation by fixed APC to T cells without further processing (apitope) ([1]; 15-mer peptides displaced by 5aa, fixed APC): could be presented by fixed APC to T cells without further processing
- identification as apitope [1]: identified as apitopes
- efficiency of human ROK5 compared with mouse ROK5 in reducing EAE severity ([7]; 100 μg): more efficient
- severity of the disease induced by MOG (clinical EAE score) [7]: can reduce the severity of the disease
- immune response to challenge with MOG 35-55 (recall proliferation, stimulation index) [8]: able to suppress the immune response

Substance: RSPFSRVVHLYRNGK (listed as Mus musculus) [mouse ROK5, mouse MOG 41-55, serine in position 42]
- severity of the disease induced by MOG (clinical EAE score) [7]: can reduce the severity of the disease

Substance: SRVVHLYRNGKDQDG (listed as Homo sapiens) [MOG 45-59, MOG peptide 45-59, apitope]
- identification as apitope [1]: identified as apitopes
